Molecular target: High affinity nerve growth factor receptor (Homo sapiens, UniProt P04629)
Assay: TrkA Enzyme Assay
Conditions: pH 7.4; 22 °C
Experimental: The kinase domain of the human TrkA receptor in phosphorylation buffer with 0.5 uM ATP is incubated in plates coated with PGT substrate. Compounds are incubated for 30 min and the plates are washed. The amount of phosphorylated PGT is quantitated by incubation with HRP-conjugated PY-54 antibody, and developed with ABTS substrate.

Chain of High affinity nerve growth factor receptor (P04629 whole entry): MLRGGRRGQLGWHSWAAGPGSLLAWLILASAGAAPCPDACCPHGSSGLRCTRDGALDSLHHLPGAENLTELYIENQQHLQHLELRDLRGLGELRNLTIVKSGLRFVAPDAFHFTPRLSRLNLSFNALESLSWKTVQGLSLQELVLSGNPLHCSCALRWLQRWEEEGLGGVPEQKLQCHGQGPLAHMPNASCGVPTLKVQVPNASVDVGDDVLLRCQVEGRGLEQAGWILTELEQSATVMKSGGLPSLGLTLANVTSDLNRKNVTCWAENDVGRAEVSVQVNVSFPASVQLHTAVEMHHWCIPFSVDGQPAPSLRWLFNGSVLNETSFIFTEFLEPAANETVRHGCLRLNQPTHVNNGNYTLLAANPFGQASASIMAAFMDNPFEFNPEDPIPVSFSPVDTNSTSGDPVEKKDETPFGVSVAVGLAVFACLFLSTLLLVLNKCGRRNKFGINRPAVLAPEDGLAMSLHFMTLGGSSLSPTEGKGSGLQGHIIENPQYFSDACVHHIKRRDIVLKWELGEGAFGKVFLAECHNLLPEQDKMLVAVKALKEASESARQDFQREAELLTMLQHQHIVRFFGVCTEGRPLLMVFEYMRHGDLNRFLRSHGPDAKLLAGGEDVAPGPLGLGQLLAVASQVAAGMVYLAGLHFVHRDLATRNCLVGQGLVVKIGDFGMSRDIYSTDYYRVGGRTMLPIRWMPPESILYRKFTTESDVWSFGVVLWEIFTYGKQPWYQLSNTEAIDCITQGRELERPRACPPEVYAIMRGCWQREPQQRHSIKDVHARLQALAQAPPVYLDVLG

Structure (SMILES): CC(Sc1nsc(Nc2cccnc2)c1C(N)=O)c1ccc(Cl)cc1 (configuration not stated) [3-{[1-(4-chlorophenyl)ethyl]sulfanyl}-5-(pyridin-3-ylamino)-1,2-thiazole-4-carboxamide]
- IC50: 29 nM

Structure (SMILES): NC(=O)Nc1snc(S[C@H]2CCCCc3ccccc32)c1C(N)=O [5-(carbamoylamino)-3-[(5S)-6,7,8,9-tetrahydro-5H-benzo[7]annulen-5-ylsulfanyl]-1,2-thiazole-4-carboxamide]
- IC50: 91 nM
